test system: Echinochloa crus-galli; assay: Test Example 1: herbicidal effect test by treatment of rice paddy soil (immediately after seeding); format: in vivo; details: 120 g/10a active ingredient, dry weight vs untreated area, 14 days after treatment
How it was run: (§1)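 Application occurs immediately after seeding, with diluted emulsion added to paddy water (about 3 cm deep) over puddled, fertilized soil at 120 g active ingredient per 10 ares. Herbicidal rate is calculated from mean dry weight against untreated controls 14 days later.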

SMILES	Herbicidal rate (%) Echinochloa crus-galli
CCC(C)CCn1oc(=O)c(Cc2ccccc2NS(=O)(=O)C(F)(F)F)c1C (stereo not drawn) [Compound 1-124]	100%
CCC(CC)n1oc(=O)c(Cc2ccccc2N(C(=O)CC(C)C)S(=O)(=O)C(F)(F)F)c1C [Compound 1-353]	90%
CSCCn1oc(=O)c(Cc2ccccc2N(C(=O)C2CC2)S(=O)(=O)C(F)(F)F)c1C [Compound 1-413]	90%

test system: broad leaf weeds (Lindernia pyxidaria and Monochoria vaginalis); assay: as above; format: in vivo; details: Lindernia pyxidaria, 120 g/10a active ingredient, dry weight vs untreated area, 14 days after treatment
How it was run: as §1

SMILES	Herbicidal rate (%) Lindernia pyxidaria
CCC(C)CCn1oc(=O)c(Cc2ccccc2NS(=O)(=O)C(F)(F)F)c1C (stereo not drawn) [Compound 1-124]	90%
CCC(CC)n1oc(=O)c(Cc2ccccc2N(C(=O)CC(C)C)S(=O)(=O)C(F)(F)F)c1C [Compound 1-353]	90%
CSCCn1oc(=O)c(Cc2ccccc2N(C(=O)C2CC2)S(=O)(=O)C(F)(F)F)c1C [Compound 1-413]	90%

same assay, conditions: Monochoria vaginalis, 120 g/10a active ingredient, dry weight vs untreated area, 14 days after treatment

SMILES	Herbicidal rate (%) Monochoria vaginalis
CCC(C)CCn1oc(=O)c(Cc2ccccc2NS(=O)(=O)C(F)(F)F)c1C (stereo not drawn) [Compound 1-124]	90%
CCC(CC)n1oc(=O)c(Cc2ccccc2N(C(=O)CC(C)C)S(=O)(=O)C(F)(F)F)c1C [Compound 1-353]	90%
CSCCn1oc(=O)c(Cc2ccccc2N(C(=O)C2CC2)S(=O)(=O)C(F)(F)F)c1C [Compound 1-413]	90%

test system: Scirpus juncoides; assay: as above; format: in vivo; details: 120 g/10a active ingredient, dry weight vs untreated area, 14 days after treatment
How it was run: as §1

SMILES	Herbicidal rate (%) Scirpus juncoides
CCC(C)CCn1oc(=O)c(Cc2ccccc2NS(=O)(=O)C(F)(F)F)c1C (stereo not drawn) [Compound 1-124]	90%
CCC(CC)n1oc(=O)c(Cc2ccccc2N(C(=O)CC(C)C)S(=O)(=O)C(F)(F)F)c1C [Compound 1-353]	90%
CSCCn1oc(=O)c(Cc2ccccc2N(C(=O)C2CC2)S(=O)(=O)C(F)(F)F)c1C [Compound 1-413]	90%

test system: southern crabgrass; assay: Test Example 3: herbicidal effect test by treatment of dry field farming soil (one day after seeding); format: in vivo; details: 120 g/10a active ingredient, evaluated 14 days after treatment
How it was run: (§2)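 Pre-emergence soil treatment: alluvial dry-field soil, 20 seeds per species mixed into top 1 cm, emulsion diluted in water sprayed one day after seeding at 100 L per 10 ares (120 g active ingredient per 10 ares). Duplicate pots; herbicidal rate (%) from dry weight vs untreated at 14 days.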

SMILES	herbicidal rate, southern crabgrass
CCC(C)CCn1oc(=O)c(Cc2ccccc2NS(=O)(=O)C(F)(F)F)c1C (stereo not drawn) [Compound 1-124]	80%
CCC(CC)n1oc(=O)c(Cc2ccccc2N(C(=O)CC(C)C)S(=O)(=O)C(F)(F)F)c1C [Compound 1-353]	90%
CSCCn1oc(=O)c(Cc2ccccc2N(C(=O)C2CC2)S(=O)(=O)C(F)(F)F)c1C [Compound 1-413]	90%

test system: Echinochloa crus-galli; assay: as above; format: in vivo; details: 120 g/10a active ingredient, evaluated 14 days after treatment
How it was run: as §2

SMILES	herbicidal rate, Echinochloa crus-galli
CCC(C)CCn1oc(=O)c(Cc2ccccc2NS(=O)(=O)C(F)(F)F)c1C (stereo not drawn) [Compound 1-124]	100%
CCC(CC)n1oc(=O)c(Cc2ccccc2N(C(=O)CC(C)C)S(=O)(=O)C(F)(F)F)c1C [Compound 1-353]	90%
CSCCn1oc(=O)c(Cc2ccccc2N(C(=O)C2CC2)S(=O)(=O)C(F)(F)F)c1C [Compound 1-413]	90%

test system: Chenopodium album; assay: as above; format: in vivo; details: 120 g/10a active ingredient, evaluated 14 days after treatment
How it was run: as §2

SMILES	herbicidal rate, Chenopodium album
CCC(C)CCn1oc(=O)c(Cc2ccccc2NS(=O)(=O)C(F)(F)F)c1C (stereo not drawn) [Compound 1-124]	50%
CCC(CC)n1oc(=O)c(Cc2ccccc2N(C(=O)CC(C)C)S(=O)(=O)C(F)(F)F)c1C [Compound 1-353]	90%
CSCCn1oc(=O)c(Cc2ccccc2N(C(=O)C2CC2)S(=O)(=O)C(F)(F)F)c1C [Compound 1-413]	90%

test system: Amaranthus viridis; assay: as above; format: in vivo; details: 120 g/10a active ingredient, evaluated 14 days after treatment
How it was run: as §2

SMILES	herbicidal rate, Amaranthus viridis
CCC(C)CCn1oc(=O)c(Cc2ccccc2NS(=O)(=O)C(F)(F)F)c1C (stereo not drawn) [Compound 1-124]	40%
CCC(CC)n1oc(=O)c(Cc2ccccc2N(C(=O)CC(C)C)S(=O)(=O)C(F)(F)F)c1C [Compound 1-353]	90%
CSCCn1oc(=O)c(Cc2ccccc2N(C(=O)C2CC2)S(=O)(=O)C(F)(F)F)c1C [Compound 1-413]	90%

test system: southern crabgrass; assay: Test Example 4: herbicidal effect test by treatment of leave and stem in dry field farming (seven days after seeding); format: in vivo; details: 120 g/10a active ingredient; emulsion sprayed seven days after seeding; evaluated 14 days after treatment
How it was run: (§3)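 Twenty seeds per species were mixed into the top 1 cm of alluvial soil in 36 cm^2 pots; emulsions were sprayed seven days after seeding at 100 L per 10 ares (120 g active ingredient per 10 ares). Herbicidal rate (%) = {1 − treated/untreated mean dry weight} × 100, 14 days after treatment, duplicate.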

SMILES	herbicidal effect (herbicidal rate), southern crabgrass
CCC(C)CCn1oc(=O)c(Cc2ccccc2NS(=O)(=O)C(F)(F)F)c1C (stereo not drawn) [Compound 1-124]	60%
CCC(CC)n1oc(=O)c(Cc2ccccc2N(C(=O)CC(C)C)S(=O)(=O)C(F)(F)F)c1C [Compound 1-353]	90%
CSCCn1oc(=O)c(Cc2ccccc2N(C(=O)C2CC2)S(=O)(=O)C(F)(F)F)c1C [Compound 1-413]	90%

test system: Echinochloa crus-galli; assay: as above; format: in vivo; details: 120 g/10a active ingredient; emulsion sprayed seven days after seeding; evaluated 14 days after treatment
How it was run: as §3

SMILES	herbicidal effect (herbicidal rate), Echinochloa crus-galli
CCC(C)CCn1oc(=O)c(Cc2ccccc2NS(=O)(=O)C(F)(F)F)c1C (stereo not drawn) [Compound 1-124]	70%
CCC(CC)n1oc(=O)c(Cc2ccccc2N(C(=O)CC(C)C)S(=O)(=O)C(F)(F)F)c1C [Compound 1-353]	90%
CSCCn1oc(=O)c(Cc2ccccc2N(C(=O)C2CC2)S(=O)(=O)C(F)(F)F)c1C [Compound 1-413]	90%

test system: Chenopodium album; assay: as above; format: in vivo; details: 120 g/10a active ingredient; emulsion sprayed seven days after seeding; evaluated 14 days after treatment
How it was run: as §3

SMILES	herbicidal effect (herbicidal rate), Chenopodium album
CCC(C)CCn1oc(=O)c(Cc2ccccc2NS(=O)(=O)C(F)(F)F)c1C (stereo not drawn) [Compound 1-124]	40%
CCC(CC)n1oc(=O)c(Cc2ccccc2N(C(=O)CC(C)C)S(=O)(=O)C(F)(F)F)c1C [Compound 1-353]	40%
CSCCn1oc(=O)c(Cc2ccccc2N(C(=O)C2CC2)S(=O)(=O)C(F)(F)F)c1C [Compound 1-413]	40%

test system: Amaranthus viridis; assay: as above; format: in vivo; details: 120 g/10a active ingredient; emulsion sprayed seven days after seeding; evaluated 14 days after treatment
How it was run: as §3

SMILES	herbicidal effect (herbicidal rate), Amaranthus viridis
CCC(C)CCn1oc(=O)c(Cc2ccccc2NS(=O)(=O)C(F)(F)F)c1C (stereo not drawn) [Compound 1-124]	40%
CCC(CC)n1oc(=O)c(Cc2ccccc2N(C(=O)CC(C)C)S(=O)(=O)C(F)(F)F)c1C [Compound 1-353]	40%
CSCCn1oc(=O)c(Cc2ccccc2N(C(=O)C2CC2)S(=O)(=O)C(F)(F)F)c1C [Compound 1-413]	40%

test system: Echinochloa crus-galli; assay: Test Example 2: herbicidal effect test by treatment during growing period in paddy rice cultivation (seven days after seeding); format: in vivo; details: 120 g/10a active ingredient, assessed 14 days after treatment, dry weight vs untreated area
How it was run: (§4)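 Paddy soil in Wagner pots with compound fertilizer, puddled; 30 seeds per species sown at 0–1 cm, flooded ~3 cm, greenhouse. Seven days after seeding, water-diluted emulsions were dropped into the water at 120 g active ingredient per 10 ares. Duplicate pots; herbicidal rate from dry weight versus untreated, 14 days after treatment.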

SMILES	Herbicidal rate (%) Echinochloa crus-galli
CCC(C)CCn1oc(=O)c(Cc2ccccc2NS(=O)(=O)C(F)(F)F)c1C (stereo not drawn) [Compound 1-124]	90%
CCC(CC)n1oc(=O)c(Cc2ccccc2N(C(=O)CC(C)C)S(=O)(=O)C(F)(F)F)c1C [Compound 1-353]	90%
CSCCn1oc(=O)c(Cc2ccccc2N(C(=O)C2CC2)S(=O)(=O)C(F)(F)F)c1C [Compound 1-413]	90%

test system: broad leaf weeds (Lindernia pyxidaria and Monochoria vaginalis); assay: as above; format: in vivo; details: Lindernia pyxidaria, 120 g/10a active ingredient, assessed 14 days after treatment, dry weight vs untreated area
How it was run: as §4

SMILES	Herbicidal rate (%) Lindernia pyxidaria
CCC(C)CCn1oc(=O)c(Cc2ccccc2NS(=O)(=O)C(F)(F)F)c1C (stereo not drawn) [Compound 1-124]	60%
CCC(CC)n1oc(=O)c(Cc2ccccc2N(C(=O)CC(C)C)S(=O)(=O)C(F)(F)F)c1C [Compound 1-353]	90%
CSCCn1oc(=O)c(Cc2ccccc2N(C(=O)C2CC2)S(=O)(=O)C(F)(F)F)c1C [Compound 1-413]	90%

same assay, conditions: Monochoria vaginalis, 120 g/10a active ingredient, assessed 14 days after treatment, dry weight vs untreated area

SMILES	Herbicidal rate (%) Monochoria vaginalis
CCC(C)CCn1oc(=O)c(Cc2ccccc2NS(=O)(=O)C(F)(F)F)c1C (stereo not drawn) [Compound 1-124]	70%
CCC(CC)n1oc(=O)c(Cc2ccccc2N(C(=O)CC(C)C)S(=O)(=O)C(F)(F)F)c1C [Compound 1-353]	90%
CSCCn1oc(=O)c(Cc2ccccc2N(C(=O)C2CC2)S(=O)(=O)C(F)(F)F)c1C [Compound 1-413]	90%

test system: Scirpus juncoides; assay: as above; format: in vivo; details: 120 g/10a active ingredient, assessed 14 days after treatment, dry weight vs untreated area
How it was run: as §4

SMILES	Herbicidal rate (%) Scirpus juncoides
CCC(C)CCn1oc(=O)c(Cc2ccccc2NS(=O)(=O)C(F)(F)F)c1C (stereo not drawn) [Compound 1-124]	80%
CCC(CC)n1oc(=O)c(Cc2ccccc2N(C(=O)CC(C)C)S(=O)(=O)C(F)(F)F)c1C [Compound 1-353]	90%
CSCCn1oc(=O)c(Cc2ccccc2N(C(=O)C2CC2)S(=O)(=O)C(F)(F)F)c1C [Compound 1-413]	90%

— US11109593B2, “Isoxazolin-5-one derivative and herbicide containing same as active ingredient” (HOKKO CHEMICAL INDUSTRY CO., LTD., priority 2017, dated 2021)
